Results: the supplement of paper PMC10307832

Assays:
Test in all cases: relative viability (nuclei count vs DMSO), 5 days (fraction); higher = more cells survive
Bleomycin + Trametinib = compound: CC1=C(N=C(N=C1N)[C@H](CC(=O)N)NC[C@@H](C(=O)N)N)C(=O)N[C@@H]([C@H](C2=CN=CN2)OC3C(C(C(C(O3)CO)O)O)OC4C(C(C(C(O4)CO)O)OC(=O)N)O)C(=O)N[C@H](C)[C@H]([C@H](C)C(=O)N[C@@H]([C@@H](C)O)C(=O)NCCC5=NC(=CS5)C6=NC(=CS6)C(=O)NCCC[S+](C)C)O [Bleomycin] + CC(=O)Nc1cccc(-n2c(=O)n(C3CC3)c(=O)c3c(Nc4ccc(I)cc4F)n(C)c(=O)c(C)c32)c1 [Trametinib] (partner 0.02 µM); details: main component drawn
Procedure, shortened: (§1)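 Dosing by pin tool came one day after lung cancer cell lines were seeded in 1536-well plates, using either one drug or a fixed anchor-drug dose plus five library-drug doses (not always all listed) in √10 steps. After 5 days, nuclei were counted on 4× images. Relative viability is treated-well nuclei count divided by vehicle-well nuclei count, and values are medians of duplicate plates.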

Bleomycin + Luminespib = compound: CC1=C(N=C(N=C1N)[C@H](CC(=O)N)NC[C@@H](C(=O)N)N)C(=O)N[C@@H]([C@H](C2=CN=CN2)OC3C(C(C(C(O3)CO)O)O)OC4C(C(C(C(O4)CO)O)OC(=O)N)O)C(=O)N[C@H](C)[C@H]([C@H](C)C(=O)N[C@@H]([C@@H](C)O)C(=O)NCCC5=NC(=CS5)C6=NC(=CS6)C(=O)NCCC[S+](C)C)O [Bleomycin] + CCNC(=O)c1noc(-c2cc(C(C)C)c(O)cc2O)c1-c1ccc(CN2CCOCC2)cc1 [Luminespib] (partner 0.01 µM); details: main component drawn
Procedure, shortened: as §1

Etoposide + Pictilisib = compound: COc1cc([C@@H]2c3cc4c(cc3[C@@H](O[C@@H]3O[C@@H]5CO[C@@H](C)O[C@H]5[C@H](O)[C@H]3O)[C@H]3COC(=O)[C@H]23)OCO4)cc(OC)c1O [Etoposide] + CS(=O)(=O)N1CCN(Cc2cc3nc(-c4cccc5[nH]ncc45)nc(N4CCOCC4)c3s2)CC1 [Pictilisib] (partner 1 µM)
Procedure, shortened: as §1

Etoposide + Olaparib = compound: COc1cc([C@@H]2c3cc4c(cc3[C@@H](O[C@@H]3O[C@@H]5CO[C@@H](C)O[C@H]5[C@H](O)[C@H]3O)[C@H]3COC(=O)[C@H]23)OCO4)cc(OC)c1O [Etoposide] + O=C(c1cc(Cc2n[nH]c(=O)c3ccccc23)ccc1F)N1CCN(C(=O)C2CC2)CC1 [Olaparib] (partner 8 µM)
Procedure, shortened: as §1

Cell Line | relative viability (Bleomycin + Trametinib; first compound 0.01 µM) | relative viability (Bleomycin + Trametinib; first compound 0.03162 µM) | relative viability (Bleomycin + Trametinib; first compound 0.1 µM) | relative viability (Bleomycin + Trametinib; first compound 0.3162 µM) | relative viability (Bleomycin + Trametinib; first compound 1 µM) | relative viability (Bleomycin + Luminespib; first compound 0.01 µM) | relative viability (Bleomycin + Luminespib; first compound 0.03162 µM) | relative viability (Bleomycin + Luminespib; first compound 0.1 µM) | relative viability (Bleomycin + Luminespib; first compound 0.3162 µM) | relative viability (Bleomycin + Luminespib; first compound 1 µM) | relative viability (Etoposide + Pictilisib; first compound 0.01 µM) | relative viability (Etoposide + Pictilisib; first compound 0.03162 µM) | relative viability (Etoposide + Pictilisib; first compound 0.1 µM) | relative viability (Etoposide + Pictilisib; first compound 0.3162 µM) | relative viability (Etoposide + Pictilisib; first compound 1 µM) | relative viability (Etoposide + Olaparib; first compound 0.01 µM) | relative viability (Etoposide + Olaparib; first compound 0.03162 µM) | relative viability (Etoposide + Olaparib; first compound 0.1 µM) | relative viability (Etoposide + Olaparib; first compound 0.3162 µM) | relative viability (Etoposide + Olaparib; first compound 1 µM)
NCI-H1734 | 0.518 | 0.537 | 0.397 | 0.263 | 0.163 | 0.167 | 0.187 | 0.198 | 0.13 | 0.147 | 0.468 | 0.47 | 0.266 | 0.341 | 0.272 | 0.285 | 0.607 | 0.589 | 0.373 | 0.263
NCI-H1755 | 0.734 | 0.726 | 0.78 | 0.665 | 0.61 | 0.582 | 0.695 | 0.22 | 0.33 | 0.244 | 0.434 | 0.473 | 0.316 | 0.426 | 0.269 | 0.838 | 0.945 | 0.791 | 0.799 | 0.422
NCI-H1792 | 0.462 | 0.396 | 0.356 | 0.317 | 0.189 | 0.393 | 0.424 | 0.553 | 0.239 | 0.251 | 0.261 | 0.261 | 0.129 | 0.216 | 0.147 | 0.348 | 0.248 | – | 0.212 | 0.152
NCI-H1793 | 0.442 | 0.413 | 0.382 | 0.262 | 0.194 | 0.169 | 0.157 | 0.286 | 0.175 | 0.153 | 0.321 | 0.433 | – | 0.313 | 0.243 | – | 0.861 | 0.608 | 0.454 | 0.295
